Measurements from publication PMC4805251, “Novel Antimicrobial Peptides EeCentrocins 1, 2 and EeStrongylocin 2 from the Edible Sea Urchin Echinus esculentus Have 6-Br-Trp Post-Translational Modifications” (PLoS ONE, 2016).
Values after ≈ are worked out from the molar mass of the structure shown. Like-named read-outs stand apart in the source and are kept apart here. Square brackets hold non-standard residues; d marks the D form. Peptide text beside a SMILES is read from it. Trp(6-Br) = N[C@@H](Cc1c[nH]c2cc(Br)ccc12)C(=O)O

How the values were obtained:
Format in all cases: cell-based
[1] = system: S. epidermidis #2, RP62A (ATCC 35984)
Text: (§1) Organic phase extract, SPE eluates and HPLC-fractions were screened for antibacterial activity against two strains of Gram-positive and two strains of Gram-negative bacteria; Corynebacterium glutamicum (ATCC 13032), Staphylococcus aureus (ATCC 9144), Pseudomonas aeruginosa #1 (ATCC 27853) and Escherichia coli #1 (ATCC 25922). For extended antimicrobial bioactivity screening, the following bacterial strains were used, three strains of Gram-positive bacteria; S. epidermidis #1 (5179-R1) kindly provided by Holger Rohde, S. epidermidis #2, RP62A (ATCC 35984) and Bacillus subtilis (ATCC 23857) in addition to the Gram-negative P. aeruginosa #2, PA 01 (ATCC 15692, DSM 19880) and E. coli #2, NR 698 (MC4100/ptD4213).
(§2) Cultures stored at -80°C were smeared onto agar plates and cultured for 24 h at 35°C. One colony of each bacterial strain was transferred to 5 ml liquid Müller-Hinton (MH, Difco, Lawrence, KS, USA) medium in a glass tube and left shaking at room temperature overnight at 600 rpm. The cultures of actively growing bacteria (20 μl) were further inoculated in 5 ml MH medium and left shaking for 2 h at room temperature. The antibacterial assays were performed as previously described by. Briefly, the bacterial cultures were diluted with medium to 1.3–1.5 × 10^4 bacteria/ml final concentrations and an aliquot of 50 μl was added to each well in 96-well Nunclon^TM microtiter plates (Nagle Nunc Int., Denmark) preloaded with 50 μl test sample solutions, i.e. extracts, eluates or peptides.
(§3) The test plates were incubated for 24 h at 35°C with optical density (OD595) recorded every hour using an Envision 2103 multilabel reader, controlled by the Wallac Envision manager (PerkinElmer, CT, USA). Antibacterial activity was defined as a sample showing >90% inhibition (as measured by optical density) compared to the negative (growth) controls, consisting of bacteria and water. Oxytetracycline (20 μM) served as a positive (inhibition) control. The minimum inhibitory concentration (MIC) was defined as the lowest concentration of a sample displaying >90% inhibition.
(§4) ACN-phases and SPE eluates were tested with two-fold serial dilutions ranging from 5.0 to 0.005 mg/ml (5.0, 2.5, 1.25, 0.63, 0.31, 0.16, 0.08, 0.04, 0.02, 0.01, 0.005 mg/ml) whereas HPLC-fractions were tested undiluted for antibacterial activity. Pure, native peptides and synthetic peptides (described in section 2.11) were tested for antimicrobial activity in concentrations ranging from 100 to 0.1 μM in two-fold serial dilutions (100, 50, 25, 12.5, 6.25, 3.13, 1.56, 0.78, 0.39, 0.20, 0.10 μM). Antimicrobial assays involving natural peptides (i.e. fractionated natural material) were run only once due to limited quantities, whereas all other assays were run in triplicates.

[2] = system: Corynebacterium glutamicum (ATCC 13032)
Text: as §1, §2, §3, §4

[3] = system: Staphylococcus aureus (ATCC 9144)
Text: as §1, §2, §3, §4

[4] = system: E. coli #2, NR 698 (MC4100/ptD4213)
Text: as §1, §2, §3, §4

[5] = system: S. epidermidis #1 (5179-R1)
Text: as §1, §2, §3, §4

[6] = system: P. aeruginosa #2, PA 01 (ATCC 15692, DSM 19880)
Text: as §1, §2, §3, §4

[7] = system: Bacillus subtilis (ATCC 23857)
Text: as §1, §2, §3, §4

[8] = system: Pseudomonas aeruginosa #1 (ATCC 27853)
Text: as §1, §2, §3, §4

[9] = system: Escherichia coli #1 (ATCC 25922)
Text: as §1, §2, §3, §4

[10] = system: Gram-positive and Gram-negative bacteria (tested strains); conditions: 24 h
Text: as §1, with “(MC4100/ptD4213). […]” for “(MC4100/ptD4213).”
The test plates were incubated for 24 h at 35°C with optical density (OD595) recorded every hour using an Envision 2103 multilabel reader, controlled by the Wallac Envision manager (PerkinElmer, CT, USA). […]
ACN-phases and SPE eluates were tested with two-fold serial dilutions ranging from 5.0 to 0.005 mg/ml (5.0, 2.5, 1.25, 0.63, 0.31, 0.16, 0.08, 0.04, 0.02, 0.01, 0.005 mg/ml) whereas HPLC-fractions were tested undiluted for antibacterial activity. […] Antimicrobial assays involving natural peptides (i.e. fractionated natural material) were run only once due to limited quantities, whereas all other assays were run in triplicates.

[11] = system: Rhodotorula sp.
Protocol: (§5) The synthetic peptides (see section 2.11) were also screened for antifungal activity against Candida albicans (ATCC 10231), Saccharomyces cerevisiae, Rhodotorula sp., Aureobasidium pullulans and Cladosporium sp. The antifungal assay was performed as described previously. Briefly, fungal spores were dissolved in potato dextrose broth (Difco, Lawrence, KS, USA) to a concentration of 4 × 10^5 spores/ml. The spores (50 μl) were inoculated on 96-well Nunclon^TM microtiter plates containing the synthetic peptides (50 μl) dissolved in MQ-H2O. […] MIC was defined as the lowest concentration of peptide giving no visible fungal growth. The negative (growth) control contained medium and fungal solution.
as §4

[12] = system: Aureobasidium pullulans
Protocol: as §5, §4

[13] = system: Cladosporium sp.
Protocol: as §5, §4

[14] = system: Saccharomyces cerevisiae
Protocol: as §5, §4

[15] = system: Candida albicans (ATCC 10231)
Protocol: as §5, §4

CC(C)C[C@H](NC(=O)[C@H](C)NC(=O)CNC(=O)[C@H](CS)NC(=O)[C@H](C)NC(=O)[C@H](CCCCN)NC(=O)[C@H](CO)NC(=O)[C@H](C)NC(=O)[C@H](Cc1ccccc1)NC(=O)CNC(=O)[C@H](C)NC(=O)[C@@H](NC(=O)[C@H](CCCCN)NC(=O)[C@H](CCCNC(=N)N)NC(=O)CNC(=O)[C@H](C)NC(=O)[C@H](CC(N)=O)NC(=O)[C@H](CCCNC(=N)N)NC(=O)[C@@H](NC(=O)[C@H](CCCCN)NC(=O)[C@H](CC(=O)O)NC(=O)[C@@H](NC(=O)[C@@H](NC(=O)[C@H](CCCNC(=N)N)NC(=O)[C@H](CCCNC(=N)N)NC(=O)[C@H](Cc1c[nH]c2cc(Br)ccc12)NC(=O)[C@H](Cc1c[nH]c2cc(Br)ccc12)NC(=O)CN)[C@@H](C)O)C(C)C)C(C)C)C(C)C)C(=O)NCC(=O)N[C@@H](Cc1c[nH]cn1)C(=O)O [EeCentrocin 1 HC-diBr] (H-G[Trp(6-Br)][Trp(6-Br)]RRTVDKVRNAGRKVAGFASKACGALGH-OH)
MIC S. epidermidis #2 ([1]; ATCC 35984, 24 h): 3.13 µM (≈ 10.7 µg/mL) | MIC raw data S. epidermidis #2 ([1]; parallel 1 of three): 3.13 µM (≈ 10.7 µg/mL) | MIC raw data S. epidermidis #2 ([1]; parallel 2 of three): 3.13 µM (≈ 10.7 µg/mL) | MIC raw data S. epidermidis #2 ([1]; parallel 3 of three): 3.13 µM (≈ 10.7 µg/mL) | MIC C. glutamicum ([2]; ATCC 13032, 24 h): 0.78 µM (≈ 2.66 µg/mL) | MIC raw data C. glutamicum ([2]; parallel 1 of three): 0.78 µM (≈ 2.66 µg/mL) | MIC raw data C. glutamicum ([2]; parallel 2 of three): 0.78 µM (≈ 2.66 µg/mL) | MIC raw data C. glutamicum ([2]; parallel 3 of three): 0.39 µM (≈ 1.33 µg/mL) | MIC S. aureus ([3]; ATCC 9144, 24 h): 3.13 µM (≈ 10.7 µg/mL) | MIC raw data S. aureus ([3]; parallel 1 of three): 3.13 µM (≈ 10.7 µg/mL) | MIC raw data S. aureus ([3]; parallel 2 of three): 3.13 µM (≈ 10.7 µg/mL) | MIC raw data S. aureus ([3]; parallel 3 of three): 1.56 µM (≈ 5.33 µg/mL) | MIC raw data E. coli #2 ([4]; parallel 1 of three): 1.56 µM (≈ 5.33 µg/mL) | MIC raw data E. coli #2 ([4]; parallel 2 of three): 1.56 µM (≈ 5.33 µg/mL) | MIC raw data E. coli #2 ([4]; parallel 3 of three): 0.78 µM (≈ 2.66 µg/mL) | MIC S. epidermidis #1 ([5]; #1 (5179-R1, 24 h)): 6.25 µM (≈ 21.3 µg/mL) | MIC raw data S. epidermidis #1 ([5]; parallel 1 of three): 6.25 µM (≈ 21.3 µg/mL) | MIC raw data S. epidermidis #1 ([5]; parallel 2 of three): 6.25 µM (≈ 21.3 µg/mL) | MIC raw data S. epidermidis #1 ([5]; parallel 3 of three): 6.25 µM (≈ 21.3 µg/mL) | MIC P. aeruginosa #2 ([6]; ATCC 15692, 24 h): 3.13 µM (≈ 10.7 µg/mL) | MIC raw data P. aeruginosa #2 ([6]; parallel 1 of three): 3.13 µM (≈ 10.7 µg/mL) | MIC raw data P. aeruginosa #2 ([6]; parallel 2 of three): 3.13 µM (≈ 10.7 µg/mL) | MIC raw data P. aeruginosa #2 ([6]; parallel 3 of three): 3.13 µM (≈ 10.7 µg/mL) | MIC raw data B. subtilis ([7]; parallel 1 of three): 1.56 µM (≈ 5.33 µg/mL) | MIC raw data B. subtilis ([7]; parallel 2 of three): 1.56 µM (≈ 5.33 µg/mL) | MIC raw data B. subtilis ([7]; parallel 3 of three): 0.78 µM (≈ 2.66 µg/mL) | MIC raw data P. aeruginosa #1 ([8]; parallel 1 of three): 1.56 µM (≈ 5.33 µg/mL) | MIC raw data P. aeruginosa #1 ([8]; parallel 2 of three): 1.56 µM (≈ 5.33 µg/mL) | MIC raw data P. aeruginosa #1 ([8]; parallel 3 of three): 1.56 µM (≈ 5.33 µg/mL) | MIC raw data E. coli #1 ([9]; parallel 1 of three): 1.56 µM (≈ 5.33 µg/mL) | MIC raw data E. coli #1 ([9]; parallel 2 of three): 1.56 µM (≈ 5.33 µg/mL) | MIC raw data E. coli #1 ([9]; parallel 3 of three): 0.78 µM (≈ 2.66 µg/mL) | MIC range towards bacteria [10]: 0.78 to 6.25 µM | MIC raw data Rhodotorula sp. ([11]; parallel 1 of three): 12.5 µM (≈ 42.7 µg/mL) | MIC raw data Rhodotorula sp. ([11]; parallel 2 of three): 12.5 µM (≈ 42.7 µg/mL) | MIC raw data Rhodotorula sp. ([11]; parallel 3 of three): 12.5 µM (≈ 42.7 µg/mL) | MIC A. pullulans ([12]; 24 h): 6.25 µM (≈ 21.3 µg/mL) | MIC raw data A. pullulans ([12]; parallel 1 of three): 6.25 µM (≈ 21.3 µg/mL) | MIC raw data A. pullulans ([12]; parallel 2 of three): 6.25 µM (≈ 21.3 µg/mL) | MIC raw data A. pullulans ([12]; parallel 3 of three): 6.25 µM (≈ 21.3 µg/mL) | MIC Cladosporium sp. ([13]; 24 h): >100 µM | MIC raw data Cladosporium sp. ([13]; parallel 1 of three): >100 µM | MIC raw data Cladosporium sp. ([13]; parallel 2 of three): >100 µM | MIC raw data Cladosporium sp. ([13]; parallel 3 of three): >100 µM | MIC S. cerevisiae ([14]; 24 h): >100 µM | MIC raw data S. cerevisiae ([14]; parallel 1 of three): >100 µM | MIC raw data S. cerevisiae ([14]; parallel 2 of three): >100 µM | MIC raw data S. cerevisiae ([14]; parallel 3 of three): >100 µM | MIC C. albicans ([15]; ATCC 10231, 24 h): 50 µM (≈ 171 µg/mL) | MIC raw data C. albicans ([15]; parallel 1 of three): 50 µM (≈ 171 µg/mL) | MIC raw data C. albicans ([15]; parallel 2 of three): 50 µM (≈ 171 µg/mL) | MIC raw data C. albicans ([15]; parallel 3 of three): 50 µM (≈ 171 µg/mL)
